Results on 79 molecules are retold here after the RepoRT retention time repository (doi:10.1021/acs.analchem.2c02893).

Molecules are shown by their SMILES.

A short description of the series: RP, Thermo Scientific Acclaim RSLC 120 C18, 100 × 2.1 mm, 2.2 µm, 30 °C, 0.2 mL/min, estimated dead time 1.1 min; A: 90% water + 10% methanol + 0.01% formic acid + 5 mM ammonium formate, pH 3.61; B: methanol + 0.01% formic acid + 5 mM ammonium formate, pH 3.61; gradient (min/%B) 0/1 1/1 2/39 13/99.9 15/99.9 15.1/1 20.1/1. Conditions: stereoisomer not certain.

In the case of `CC12C=CC(=O)C=C1CCC1C2CCC2(C)C(O)CCC12` (centres undefined) [Boldenone], the LC retention time is 9.03 min.

Regarding `CCN(CC)CCCOC(=O)C1(c2ccccc2)CC2CCC1C2` (centres undefined) [Bornaprine], the LC retention time is 8.54 min. Consider `O=C(Nc1ccccc1-c1ccc(Cl)cc1)c1cccnc1Cl` [Boscalid], for which the LC retention time was 9.4 min.

Turning to `COc1ccccc1Oc1c(NS(=O)(=O)c2ccc(C(C)(C)C)cc2)nc(-c2ncccn2)nc1OCCO` [Bosentan], the LC retention time was 9.96 min. Take `CNC(C)C(=O)c1ccc(Br)cc1` (centres undefined) [Brefedrone]: the LC retention time is 5.05 min.

`O=c1oc2ccccc2c(O)c1C1CC(c2ccc(-c3ccc(Br)cc3)cc2)Cc2ccccc21` (centres undefined) [Brodifacoum]: the LC retention time was 13 min. Take `CCC(C)n1c(=O)[nH]c(C)c(Br)c1=O` (centres undefined) [Bromacil]: the LC retention time was 7.07 min. As to `O=c1oc2ccccc2c(O)c1C(CC(O)c1ccc(-c2ccc(Br)cc2)cc1)c1ccccc1` (centres undefined) [Bromadiolone], the LC retention time was 11.5 min. `O=C1CN=C(c2ccccn2)c2cc(Br)ccc2N1` [Bromazepam]: the LC retention time was 7.28 min. Turning to `CN(Cc1cc(Br)cc(Br)c1N)C1CCCCC1` [Bromhexine], the LC retention time was 10 min. For `CC(N)Cc1c2ccoc2c(Br)c2ccoc12` (centres undefined) [Bromodragonfly], the LC retention time is 7.41 min. To `COP(=S)(OC)Oc1cc(Cl)c(Br)cc1Cl` [Bromophos (Bromophos-methyl)] belongs 12.7 min; to `CCOP(=S)(OCC)Oc1cc(Cl)c(Br)cc1Cl` [Bromophos-ethyl], 13.5 min; to `CC(C)OC(=O)C(O)(c1ccc(Br)cc1)c1ccc(Br)cc1` [Bromopropylate], 12.5 min. Regarding `O=C(CCCN1CCC(O)(c2ccc(Br)cc2)CC1)c1ccc(F)cc1` [Bromperidol], the LC retention time was 7.12 min. To `CN(C)CCC(c1ccc(Br)cc1)c1ccccn1` (centres undefined) [Brompheniramine] belongs 6.56 min. In the case of `CC(C)C(Br)C(=O)NC(N)=O` (centres undefined) [Bromural (Bromisoval)], the LC retention time is 6.17 min.

For `Cc1nnc2n1-c1sc(Br)cc1C(c1ccccc1Cl)=NC2` [Brotizolam], the LC retention time is 8.28 min.

Consider `COc1cc2c(cc1OC)C13CCN4CC5=CCOC6CC(=O)N2C1C6C5CC43` (centres undefined) [Brucine], for which the LC retention time was 4.21 min. `CCOc1ccc(NC(=O)CC(C)O)cc1` (centres undefined) [Bucetin]: the LC retention time is 6.27 min. For the molecule `CCCC1OC2CC3C4CCC5=CC(=O)C=CC5(C)C4C(O)CC3(C)C2(C(=O)CO)O1` (centres undefined) [Budesonide], the LC retention time was 10.3 min.

For `CC(C)(C)N1CCC(c2ccccc2)(c2ccccc2)CC1` [Budipine], the LC retention time was 6.72 min. To `CN(C)CCc1c[nH]c2ccc(O)cc12` [Bufotenin] belongs 2.82 min; to `COc1ccc2c(c1O)-c1c3c(cc4c1C(C2)N(C)CC4)OCO3` (centres undefined) [Bulbocapnine], 4.36 min. As to `CCCCNc1cc(C(=O)O)cc(S(N)(=O)=O)c1Oc1ccccc1` [Bumetanide], the LC retention time was 7.83 min. To `CC(C)(C)NCC(O)COc1ccccc1C#N` (centres undefined) [Bunitrolol] belongs 4.66 min; to `CCC(NC)C(=O)c1ccc(C)cc1` (centres undefined) [Buphedrone-4-Methyl], 5.04 min; to `CCC(NC)C(=O)c1ccccc1` (centres undefined) [Buphedrone], 4.26 min. Regarding `CCCCc1c(C)nc(NCC)nc1OS(=O)(=O)N(C)C` [Bupirimate], the LC retention time was 10.5 min. `CCCCN1CCCCC1C(=O)Nc1c(C)cccc1C` (centres undefined) [Bupivacaine]: the LC retention time is 6.18 min. Turning to `CC(C)(C)NCC(O)COc1cc(C(=O)O)ccc1Cl` (centres undefined) [Bupranolol- 5-Carboxy], the LC retention time was 5.01 min. To `Cc1ccc(Cl)c(OCC(O)CNC(C)(C)C)c1` (centres undefined) [Bupranolol] belongs 7.07 min; to `COC12CCC3(CC1C(C)(O)C(C)(C)C)C1Cc4ccc(O)c5c4C3(CCN1CC1CC1)C2O5` (centres undefined) [Buprenorphine (BN)], 7.96 min; to `CC(C)N1C(=O)N(c2ccccc2)CSC1=NC(C)(C)C` [Buprofezin  (Z-isomer. Buprofexin)], 12.2 min. As for `CC(NC(C)(C)C)C(=O)c1cccc(Cl)c1` (centres undefined) [Bupropion], the LC retention time is 5.76 min. To `O=C1CC2(CCCC2)CC(=O)N1CCCCN1CCN(c2ncccn2)CC1` [Buspirone] belongs 5.78 min.

`CCCCOCN(C(=O)CCl)c1c(CC)cccc1CC` [Butachlor]: the LC retention time was 12.3 min. Next, `C=CCOC(=O)C(C)(C)OC(=O)c1cc(-n2c(=O)cc(C(F)(F)F)n(C)c2=O)ccc1Cl` [Butafenacil]: 9.89 min; `CCOP(=S)(NC(C)CC)Oc1cc(C)ccc1[N+](=O)[O-]` (centres undefined) [Butamifos]: 11.2 min. Consider `CC(C)CC1Nc2cc(Cl)c(S(N)(=O)=O)cc2S(=O)(=O)N1` (centres undefined) [Butizide], for which the LC retention time was 6.14 min. To `CCCCOc1ccc(C(=O)OCCN(CC)CC)cc1` [Butoxycaine] belongs 11.3 min; to `CNC(=O)ON=C(C)C(C)S(C)(=O)=O` (centres undefined) [Butoxycarboxim], 3.66 min; to `CCC(C)Nc1c([N+](=O)[O-])cc(C(C)(C)C)cc1[N+](=O)[O-]` (centres undefined) [Butralin], 13 min. Take `CN(C)c1ccc(N=Nc2ccccc2)cc1` [Butter yellow]: the LC retention time is 12.4 min. With `C#CC(C)N(C)C(=O)Nc1ccc(Cl)cc1` (centres undefined) [Buturon], the LC retention time was 8.35 min. For `CCSC(=O)N(CC(C)C)CC(C)C` [Butylate], the LC retention time was 12 min. As for `CCC(NC)C(=O)c1ccc2c(c1)OCO2` (centres undefined) [Butylone], the LC retention time is 4.34 min.

Consider `CCCCOC(=O)c1ccc(O)cc1` [Butylparaben], for which the LC retention time is 9.46 min.

As to `O=C(NC(CO)C(O)c1ccc([N+](=O)[O-])cc1)C(Cl)Cl` (centres undefined) [CAF-3], the LC retention time is 12.7 min. Turning to `O=C(c1cccc(F)c1)N1CCC(N2CCN(c3ccccc3)CC2)CC1` [CC-2201], the LC retention time was 11.3 min.

On to `Cn1sc(Cl)cc1=O` [CMI (5-Chloro-2-methyl-4-isothiazolin-3-on)], for which the LC retention time was 4.51 min. For the molecule `CCCCCCCC(C)(C)c1ccc(C2CCCC(O)C2)c(O)c1` (centres undefined) [CP 47-497-C8], the LC retention time was 13.5 min. Turning to `CCCCCCC(C)(C)c1ccc(C2CCCC(O)C2)c(O)c1` (centres undefined) [CP 47-497], the LC retention time was 13.1 min. For `CCCCCCC(C)(C)c1ccc(C2CC(O)CCC2CCCO)c(O)c1` (centres undefined) [CP 55-940], the LC retention time is 12 min.

In the case of `CCOP(=O)(SC(C)CC)SC(C)CC` (centres undefined) [Cadusafos], the LC retention time is 11.5 min. In the case of `CN(CCO)c1nc2c(c(=O)n(C)c(=O)n2C)n1C` [Cafaminol], the LC retention time was 4.94 min. Turning to `CN(C)C(=O)OC1N=C(c2ccccc2)c2cc(Cl)ccc2N(C)C1=O` (centres undefined) [Camazepam], the LC retention time is 10 min. `CC(C)OC(=O)Nc1ccc2nc(-c3cscn3)[nH]c2c1` [Cambendazol]: the LC retention time is 7.66 min.

On to `CCOc1nc2cccc(C(=O)OC(C)OC(=O)OC3CCCCC3)c2n1Cc1ccc(-c2ccccc2-c2nn[nH]n2)cc1` (centres undefined) [Candesartan cilexetil], for which the LC retention time is 12.2 min. To `CCOc1nc2cccc(C(=O)O)c2n1Cc1ccc(-c2ccccc2-c2nn[nH]n2)cc1` [Candesartan] belongs 7.93 min; to `C=C(C)C1CCC(C)=CC1c1c(O)cc(CCCCC)cc1O` (centres undefined) [Cannabidiol], 12.7 min; to `CCCCCc1cc(O)c2c(c1)OC(C)(C)c1ccc(C)cc1-2` [Cannabinol], 13.7 min. To `CC12CCC(=O)C=C1C=CC1C2CCC2(C)C1CCC21CCC(=O)O1` (centres undefined) [Canrenone] belongs 9.77 min. On to `CCCCCOC(=O)Nc1nc(=O)n(C2OC(C)C(O)C2O)cc1F` (centres undefined) [Capecitabin], for which the LC retention time was 7.59 min. For `CCCCCC(=O)c1ccc(O)cc1O` [Caproylresorcinol], the LC retention time was 10.4 min. Take `COc1cc(CNC(=O)CCCCC=CC(C)C)ccc1O` [Capsaicin]: the LC retention time was 9.83 min. Regarding `O=C1C2CC=CCC2C(=O)N1SC(Cl)(Cl)Cl` (centres undefined) [Captan], the LC retention time is 8.77 min.

Turning to `CC(CS)C(=O)N1CCCC1C(=O)O` (centres undefined) [Captopril], the LC retention time is 4.59 min.

For the molecule `CC(C)NCC(O)COc1cccc2[nH]c3ccccc3c12` (centres undefined) [Carazolol], the LC retention time is 5.49 min.

With `NC(=O)N1c2ccccc2CC(O)c2ccccc21` (centres undefined) [Carbamazepine -10-Hydroxy], the LC retention time was 5.94 min. On to `NC(=O)N1c2ccccc2C(O)C(O)c2ccccc21` (centres undefined) [Carbamazepine-10.11-dihydro-10.11 dihydroxy], for which the LC retention time is 5.79 min. In the case of `NC(=O)N1c2ccccc2C2OC2c2ccccc21` (centres undefined) [Carbamazepine-10.11-epoxide], the LC retention time was 6.04 min. In the case of `NC(=O)N1c2ccccc2C=Cc2ccccc21` [Carbamazepine], the LC retention time was 7.36 min. Regarding `CCN(CC)C(=O)N1CCN(C)CC1` [Carbamazine-Diethyl], the LC retention time was 3.16 min. In the case of `CNC(=O)Oc1cccc2ccccc12` [Carbaryl], the LC retention time was 7.46 min.

In the case of `COC(=O)Nc1nc2ccccc2[nH]1` [Carbendazim], the LC retention time was 5.46 min. Next, `CCNC(=O)C(C)OC(=O)Nc1ccccc1` (centres undefined) [Carbetamide]: 6.58 min; `CN(C)CCOC(c1ccc(Cl)cc1)c1ccccn1` (centres undefined) [Carbinoxamine]: 6.08 min; `CNC(=O)Oc1cccc2c1OC(C)(C)C2O` (centres undefined) [Carbofuran-3-hydroxy]: 5.09 min.
